In brackets after ≈: the same amount, converted by molar mass. Marks after values point to notes of the source that are not given here.
Key:
human skin [1] = experiment: Transepidermal water loss (TEWL) of human skin in vitro, reversibility; conditions: for TEWL 1 h after the sample had been removed / TEWL 4 h after the sample had been removed / TEWL 8 h after the sample had been removed / TEWL 12 h after the sample had been removed / TEWL 24 h after the sample had been removed: 24-h application of 1% enhancer (1% Azone, 5% SDS) in 60% PG; for TEWL 1 h after the sample had been removed / TEWL 4 h after the sample had been removed / TEWL 8 h after the sample had been removed / TEWL 12 h after the sample had been removed / TEWL 24 h after the sample had been removed / TEWL before sample application (baseline): mean ± SEM; for reversibility of TEWL increase: after 24-h application, followed 24 h after removal
Excerpt: (§1) We further investigated the direct effects of the selected enhancers on the skin barrier assessed by TEWL and the electrical impedance of human skin in vitro. TEWL is a method commonly used in dermatology[38] to study, for example, the irritant potential of chemicals, skin barrier recovery, or effect of topical formulations, and permeation enhancers[17],[21],[41]–[44]. Electrical impedance measures the opposition of the skin to alternating electrical current and is inversely proportional to the flux of ions. Thus, increased TEWL or decreased impedance indicates a barrier impairment[45],[46]. Electrical impedance or conductance measurements have been used to screen new enhancers or assess the irritation potential of compounds[13],[15],[17],[21],[32],[44],[47]–[50]. Both TEWL and impedance can distinguish between reversible and irreversible effects of enhancers on skin permeability[17],[21],[40],[44],[51].
(§2) Human skin was mounted in Franz diffusion cells in the same way as for the permeation studies. After 1-h equilibration, basal TEWL and impedance values were recorded. Then, 1% enhancer in 60% PG, 60% PG as a negative control, 1% Azone in 60% PG, or 5% SDS in 60% PG as positive (irreversible) controls was applied on the skin (100 µl/cm^2) for 24 h. The residual sample was washed with PBS and gently blotted dry. At 1, 4, 8, 12, and 24 h after sample removal, TEWL, and impedance values were recorded. TEWL was measured using AquaFlux AF 200 (Biox Systems Ltd, London, UK), employing the condenser-chamber measurement method at 26 ± 1.0 °C and 43 ± 3% relative air humidity. Electrical impedance was measured by LCR meter 4080 (Conrad electronic, Hirschau, Germany, measuring range 20 Ω–10 MΩ, error at kΩ values < 0.5%) operated in parallel mode with an alternating frequency of 120 Hz, which was also used in our previous work[21],[44].
(§3) Samples were removed from the skin after 24 h, and TEWL and impedance values were recorded in predetermined time intervals (1, 4, 8, 12, and 24 h after sample removal). Data are presented as the means ± SEM; n ≥ 3. * statistically significant difference compared to the baseline value before the sample application at p < 0.05. ^+ statistically significant compared to the value 1 h after the sample removal at p < 0.05.^ ≠ statistically significant compared to the control (60% PG without enhancer) at the same time point, at p < 0.05.

human skin [2] = experiment: Electrical impedance of human skin in vitro, reversibility; conditions: for impedance 1 h after the sample had been removed / impedance 4 h after the sample had been removed / impedance 8 h after the sample had been removed / impedance 12 h after the sample had been removed / impedance 24 h after the sample had been removed: 24-h application of 1% enhancer (1% Azone, 5% SDS) in 60% PG; for impedance 1 h after the sample had been removed / impedance 4 h after the sample had been removed / impedance 8 h after the sample had been removed / impedance 12 h after the sample had been removed / impedance 24 h after the sample had been removed / impedance before sample application (baseline): mean ± SEM; for recovery of skin impedance after sample removal: after 24-h application, followed 24 h after removal
Excerpt: as §1, §2, §3

human skin [3] = experiment: Theophylline permeation through human skin in Franz diffusion cells with co-applied enhancer; assay type: in vitro ADME; conditions: for CDERMIS, theophylline concentration in dermis / CEPIDERMIS, theophylline concentration in epidermis / ER, enhancement ratio of theophylline flux (fold increase in flux over control): 1% enhancer co-applied with 5% TH in 60% PG; for CDERMIS, theophylline concentration in dermis / CEPIDERMIS, theophylline concentration in epidermis: after 48 h permeation, mean ± SEM; for ER, enhancement ratio of theophylline flux (fold increase in flux over control): human skin in vitro
Procedure: The prepared enhancers were applied at 1% in 60% aqueous propylene glycol (PG) to human skin in vitro; 60% PG was used as a negative control. PG was selected for its synergy with amphiphilic enhancers. Each model drug was co-applied with the enhancer at infinite dose.
(§4) Donor samples for reversibility and infrared studies contained 1% enhancer in 60% PG. All samples were thoroughly mixed, incubated at 32 °C for 24 h, and, if needed, carefully resuspended before applying on the skin. The effects of the studied enhancers on the solubility of model drugs were assessed as described previously.
(§5) The permeation-enhancing potencies of the prepared compounds were evaluated on human skin in Franz diffusion cells. Human skin was slowly thawed, cut into 2 × 2 cm pieces, fixed in Teflon holders with 1-cm^2 circular permeation areas, and mounted into Franz cells epidermal side up. The acceptor compartment (15.9 ± 0.1 ml) was filled with phosphate-buffered saline at pH 7.4 with 0.005% gentamicin (PBS) and stirred at 32 °C throughout the experiment. The skin integrity was checked by electrical impedance (any skin sample with the impedance < 10 kΩ was excluded). Then, 100 µl of a donor sample (infinite dose) was applied to the skin and covered with a glass slide. Acceptor phase samples (300 µl) were collected at predetermined time intervals for 48 h, to reach steady-state and were replaced by the same volume of fresh PBS. […] The drug concentrations were measured by HPLC (see supplementary data).
(§6) The flux of the model drug through the skin Jss (µg/cm^2/h) was calculated from the linear region of this plot. The enhancement ratio (ER) was calculated as the ratio of flux with and without an enhancer.
(§7) After the permeation experiment, the cells were dismounted, the skin was carefully washed with PBS, and the permeation area of the skin (1 cm^2) was punched off. After heating the skin fragments to 80 °C for 1 min, the epidermis (E) was peeled off the dermis (D), individually weighed and extracted by 1 and 2 ml, respectively, of an extraction solvent (identical to the mobile phase for the drug HPLC analysis, see supplementary data) for 24 h. The drug concentration was measured by HPLC (see supplementary data).

human skin [4] = experiment: Diclofenac permeation through human skin in Franz diffusion cells with co-applied enhancer; assay type: in vitro ADME; conditions: 1% enhancer co-applied with 3% DC in 60% PG; for CDERMIS, diclofenac concentration in dermis / CEPIDERMIS, diclofenac concentration in epidermis: after 48 h permeation, mean ± SEM; for ER, enhancement ratio of diclofenac flux: human skin in vitro
Procedure: as §4, §5, §6, §7

[5] = Solubility of model drugs (donor sample, PBS); conditions: for solubility: pH 7.4
Procedure: as §4, §5

[6] = DC: free acid form; quoted without reference; cited from earlier work
human skin [7] = conditions: 5% DC in PBS/isopropyl alcohol 9:1 on human skin; cited from earlier work
[8] = Diclofenac permeation through human skin in Franz diffusion cells with co-applied enhancer; assay type: in vitro ADME; conditions: pH 7.4; 3% DC in 60% PG, no enhancer; human skin in vitro; read-out: permeability coefficient of DC (converted)
Procedure: as §4, §5, §6, §7

rat skin = conditions: […] DC in ethanol/glycerol/water 6:1:3 on rat skin; cited from earlier work

SMILES	CDERMIS, theophylline concentration in dermis (human skin [3])	CEPIDERMIS, theophylline concentration in epidermis (human skin [3])	CDERMIS, diclofenac concentration in dermis (human skin [4])	CEPIDERMIS, diclofenac concentration in epidermis (human skin [4])	ER, enhancement ratio of diclofenac flux (human skin [4])	ER, enhancement ratio of theophylline flux (fold increase in flux over control) (human skin [3])	other results
CCCCCCCCCCCCOS(=O)(=O)[O-].[Na+] [SDS, sodium dodecyl sulfate, reference compound]							TEWL 1 h after the sample had been removed (human skin [1]): 47.3 ± 2.2*^≠ g/m^2/h; TEWL 4 h after the sample had been removed (human skin [1]): 45.8 ± 4.4* g/m^2/h; TEWL 8 h after the sample had been removed (human skin [1]): 38.7 ± 3.1* g/m^2/h; TEWL 12 h after the sample had been removed (human skin [1]): 38.2 ± 2.6* g/m^2/h; TEWL 24 h after the sample had been removed (human skin [1]): 38.0 ± 2.3* g/m^2/h; reversibility of TEWL increase (human skin [1]): lack of TEWL and impedance reversibility; TEWL before sample application (baseline) (human skin [1]): 26.1 ± 2.9 g/m^2/h; impedance 1 h after the sample had been removed (human skin [2]): 1.9 ± 0.2* kΩ×cm^2; impedance 4 h after the sample had been removed (human skin [2]): 3.8 ± 0.2*^≠ kΩ×cm^2; impedance 8 h after the sample had been removed (human skin [2]): 5.0 ± 0.3*^≠ kΩ×cm^2; impedance 12 h after the sample had been removed (human skin [2]): 5.6 ± 0.3*^≠ kΩ×cm^2; impedance 24 h after the sample had been removed (human skin [2]): 6.4 ± 0.3*^≠ kΩ×cm^2; recovery of skin impedance after sample removal (human skin [2]): lack of TEWL and impedance reversibility; impedance before sample application (baseline) (human skin [2]): 26.7 ± 0.7 kΩ×cm^2
CCCCCCCCCCCCOC(=O)C1CC(O)CN1C(=O)CC (stereo not drawn) [Hyp3]	0.25 ± 0.07 µg/mg	3.64 ± 0.85 µg/mg	0.97 ± 0.07 µg/mg	9.18 ± 0.62 µg/mg	4		ER of epidermal TH concentration (human skin [3]; 1% enhancer with 5% TH in 60% PG, over control): 1.9
CCCCCCCCCCCCOC(=O)C1CCC(=O)N1C(=O)CC (stereo not drawn) [PCA3]	0.28 ± 0.04 µg/mg	2.99 ± 0.37 µg/mg				9	
Cn1c(=O)c2[nH]cnc2n(C)c1=O [TH, theophylline]							solubility at 24 h [5]: ~25000 µg/mL (≈ 139 mM); solubility [5]: 7650 ± 20 µg/mL (≈ 42.5 mM); logP [6]: ~ 0
CCCCCCCCCCCCOC(=O)C1CCC(=O)N1C(=O)CCCC (stereo not drawn) [PCA5]	0.23 ± 0.07 µg/mg	2.14 ± 0.44 µg/mg				5	
CCCCCCCCCCCCOC(=O)C1CCCN1C(=O)CCCC (stereo not drawn) [Pro5]	0.26 ± 0.02 µg/mg	0.83 ± 0.12 µg/mg	1.30 ± 0.25 µg/mg	8.51 ± 1.39 µg/mg		24	
CCCCCCCCCCCCOC(=O)C1CCC(=O)N1C(C)=O (stereo not drawn) [PCA2]	0.22 ± 0.03 µg/mg	2.33 ± 0.26 µg/mg				12	
CCCCCCCCCCCCOC(=O)C1CCC(=O)N1C(=O)CCC (stereo not drawn) [PCA4]	0.30 ± 0.14 µg/mg	2.53 ± 0.23 µg/mg				5	
CCCCCCCCCCCCN1CCCCCC1=O [Azone, N-dodecylazepan-2-one, reference compound]							TEWL 1 h after the sample had been removed (human skin [1]): 67.7 ± 1.3*^≠ g/m^2/h; TEWL 4 h after the sample had been removed (human skin [1]): 60.7 ± 1.7*^≠ g/m^2/h; TEWL 8 h after the sample had been removed (human skin [1]): 51.9 ± 1.6*^≠+ g/m^2/h; TEWL 12 h after the sample had been removed (human skin [1]): 48.8 ± 2.3*^≠+ g/m^2/h; TEWL 24 h after the sample had been removed (human skin [1]): 48.3 ± 1.4*^≠+ g/m^2/h; reversibility of TEWL increase (human skin [1]): lack of TEWL and impedance reversibility; TEWL before sample application (baseline) (human skin [1]): 28.2 ± 3.6 g/m^2/h; impedance 1 h after the sample had been removed (human skin [2]): 2.6 ± 0.4* kΩ×cm^2; impedance 4 h after the sample had been removed (human skin [2]): 7.8 ± 0.4*^≠ kΩ×cm^2; impedance 8 h after the sample had been removed (human skin [2]): 11.2 ± 0.2*^≠+ kΩ×cm^2; impedance 12 h after the sample had been removed (human skin [2]): 12.2 ± 0.4*^≠+ kΩ×cm^2; impedance 24 h after the sample had been removed (human skin [2]): 12.4 ± 0.8*^≠+ kΩ×cm^2; recovery of skin impedance after sample removal (human skin [2]): lack of TEWL and impedance reversibility; impedance before sample application (baseline) (human skin [2]): 25.1 ± 2.0 kΩ×cm^2
CCCCCCCCCCCCOC(=O)C1CC(O)CN1C(=O)CCC (stereo not drawn) [Hyp4]	0.39 ± 0.07 µg/mg	1.96 ± 0.56 µg/mg	1.01 ± 0.05 µg/mg	8.99 ± 1.23 µg/mg	4	16	
CCCCCCCCCCCCOC(=O)C1CCCN1C(=O)CCCCCCC (stereo not drawn) [Pro8]	0.19 ± 0.02 µg/mg	0.89 ± 0.25 µg/mg	1.08 ± 0.28 µg/mg	10.20 ± 0.96 µg/mg	3	9	
CCCCCCCCCCCCOC(=O)C1CCCN1C(=O)CCCCCC (stereo not drawn) [Pro7]	0.26 ± 0.04 µg/mg	0.95 ± 0.09 µg/mg	1.30 ± 0.75 µg/mg	8.63 ± 3.11 µg/mg	5	15	
CCCCCCCCCCCCOC(=O)C1CCCN1C(=O)CCCCC (stereo not drawn) [Pro6]	0.22 ± 0.03 µg/mg	1.14 ± 0.19 µg/mg	1.44 ± 0.31 µg/mg	10.26 ± 0.38 µg/mg		16	
CCCCCCCCCCCCOC(=O)C1CC(O)CN1C(C)=O (stereo not drawn) [Hyp2]	0.20 ± 0.03 µg/mg	2.87 ± 0.45 µg/mg	0.90 ± 0.08 µg/mg	9.22 ± 0.32 µg/mg	3	10	
CCCCCCCCCCCCOC(=O)C1CC(O)CN1C(=O)CCCC (stereo not drawn) [Hyp5]	0.23 ± 0.03 µg/mg	1.45 ± 0.41 µg/mg	1.02 ± 0.11 µg/mg	9.84 ± 1.22 µg/mg	5	~19	
O=C(O)Cc1ccccc1Nc1c(Cl)cccc1Cl [DC, diclofenac]							permeability coefficient of DC (human skin [7]): 2.2 × 10^–5 cm/h; Papp at 48 h, 3 % [8]: 0.0144 ×10⁻⁶ cm/s; permeability coefficient of DC (rat skin): 11.0 × 10^–5 cm/h; solubility ([5]; phosphate-buffered saline): 9450 ± 150 µg/mL (≈ 31.9 mM)
